Consider 24 molecules from US20230040770A1, “HETEROCYCLIC COMPOUND AND USE THEREOF” (TAKEDA PHARMACEUTICAL COMPANY LIMITED, priority 2019, published 2023).

Molecules are shown by their SMILES.

For the assay, the target named is T1, human orexin type 2 receptor (Homo sapiens, UniProt O43614).
T1 construct: expressed in transfected cells
T1 sequence (O43614 1-444): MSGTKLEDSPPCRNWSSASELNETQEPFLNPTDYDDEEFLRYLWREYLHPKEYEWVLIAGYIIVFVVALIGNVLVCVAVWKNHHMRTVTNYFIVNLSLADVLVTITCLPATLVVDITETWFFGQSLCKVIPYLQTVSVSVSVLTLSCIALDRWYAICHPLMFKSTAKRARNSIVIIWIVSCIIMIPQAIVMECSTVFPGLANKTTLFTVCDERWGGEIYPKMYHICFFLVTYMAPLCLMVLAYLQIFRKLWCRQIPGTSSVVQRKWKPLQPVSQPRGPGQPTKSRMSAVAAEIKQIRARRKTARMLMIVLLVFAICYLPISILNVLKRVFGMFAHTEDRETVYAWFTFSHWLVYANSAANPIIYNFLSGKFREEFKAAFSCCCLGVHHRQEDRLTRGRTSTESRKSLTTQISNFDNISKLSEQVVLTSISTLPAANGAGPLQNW
Description: Measurement of orexin type 2 receptor agonist activity (calcium indicator fluorescence, CHO cells forcibly expressing human OX2 receptor). The format is cell-based. To be noted: compound at 3 μM; 0% = DMSO, 100% = orexin A (human) 10 nM. The method in brief:
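Agonist response normalised between vehicle (0%) and orexin A at 10 nM final (100%), from kinetic Fluo-4 calcium signals recorded for about 2 min after compound addition. Cells: stable human OX2R CHO clone, dye-loaded 30 min at 37 °C plus 30 min at room temperature.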
`CCS(=O)(=O)N[C@@H]1[C@H](Cc2cccc(-c3cccc(F)c3F)c2F)N(C(=O)N2CCC2)CC1(F)F` [Example 289, N-{(2S,3R)-1-(azetidine-1-carbonyl)-4,4-difluoro-2-[(2,2′,3′-trifluoro[1,1′-biphenyl]-3-yl)methyl]pyrrolidin-3-yl}ethanesulfonamide]: the “OX2R agonist activity (3 μM, %)” value was 80%.

In the case of `CCS(=O)(=O)N[C@@H]1[C@H](Cc2cccc(-c3cccc(C)c3F)c2F)N(C(=O)N2CCC2)CC1(F)F` [Example 291, N-{(2S,3R)-1-(azetidine-1-carbonyl)-2-[(2,2′-difluoro-3′-methyl[1,1′-biphenyl]-3-yl)methyl]-4,4-difluoropyrrolidin-3-yl}ethanesulfonamide], the “OX2R agonist activity (3 μM, %)” value worked out at 90%.

For `CCS(=O)(=O)N[C@H]1[C@@H](F)CN(C(=O)C(C)C)[C@H]1Cc1cccc(-c2cc(F)ccc2F)c1F` [Example 292, N-{(2S,3R,4S)-4-fluoro-1-(2-methylpropanoyl)-2-[(2,2′,5′-trifluoro[1,1′-biphenyl]-3-yl)methyl]pyrrolidin-3-yl}ethanesulfonamide], the “OX2R agonist activity (3 μM, %)” value worked out at 87%.

In the case of `CCS(=O)(=O)N[C@H]1[C@@H](F)CN(C(=O)C(C)C)[C@H]1Cc1cccc(-c2ccccc2)c1F` [Example 293, N-[(2S,3R,4S)-4-fluoro-2-[(2-fluoro[1,1′-biphenyl]-3-yl)methyl]-1-(2-methylpropanoyl)pyrrolidin-3-yl]ethanesulfonamide], the “OX2R agonist activity (3 μM, %)” value stood at 83%.

As to `CCS(=O)(=O)N[C@H]1[C@@H](F)CN(C(=O)N(C)C)[C@H]1Cc1cccc(-c2cc(F)ccc2F)c1F` [Example 294, (2S,3R,4S)-3-[(ethanesulfonyl)amino]-4-fluoro-N,N-dimethyl-2-[(2,2′,5′-trifluoro[1,1′-biphenyl]-3-yl)methyl]pyrrolidine-1-carboxamide], the “OX2R agonist activity (3 μM, %)” value came out at 96%.

Regarding `CCS(=O)(=O)N[C@H]1[C@@H](F)CN(C(=O)N(C)C)[C@H]1Cc1cccc(-c2ccccc2)c1F` [Example 295, (2S,3R,4S)-3-[(ethanesulfonyl)amino]-4-fluoro-2-[(2-fluoro[1,1′-biphenyl]-3-yl)methyl]-N,N-dimethylpyrrolidine-1-carboxamide], the “OX2R agonist activity (3 μM, %)” value was 95%.

Consider `CCS(=O)(=O)N[C@H]1[C@@H](F)CN(C(=O)C(C)C)[C@H]1Cc1cccc(-c2cc(F)cc(F)c2)c1F` [Example 296, N-{(2S,3R,4S)-4-fluoro-1-(2-methylpropanoyl)-2-[(2,3′,5′-trifluoro[1,1′-biphenyl]-3-yl)methyl]pyrrolidin-3-yl}ethanesulfonamide], for which the “OX2R agonist activity (3 μM, %)” value stood at 96%.

`CCS(=O)(=O)N[C@H]1[C@@H](F)CN(C(=O)C(C)C)[C@H]1Cc1cccc(-c2cccc(F)c2F)c1F` [Example 297, N-{(2S,3R,4S)-4-fluoro-1-(2-methylpropanoyl)-2-[(2,2′,3′-trifluoro[1,1′-biphenyl]-3-yl)methyl]pyrrolidin-3-yl}ethanesulfonamide]: the “OX2R agonist activity (3 μM, %)” value was determined as 95%.

For the molecule `CCS(=O)(=O)N[C@H]1[C@@H](F)CN(C(=O)C(C)C)[C@H]1Cc1cccc(-c2cccc(Cl)c2)c1F` [Example 298, N-[(2S,3R,4S)-2-[(3′-chloro-2-fluoro[1,1′-biphenyl]-3-yl)methyl]-4-fluoro-1-(2-methylpropanoyl)pyrrolidin-3-yl]ethanesulfonamide], the “OX2R agonist activity (3 μM, %)” value was 96%.

`CCS(=O)(=O)N[C@H]1[C@@H](F)CN(C(=O)C2CCO2)[C@H]1Cc1cccc(-c2cc(F)cc(F)c2)c1F` (stereo partly drawn) [Example 304, N-{(2S,3R,4S)-4-fluoro-1-(oxetane-2-carbonyl)-2-[(2,3′,5′-trifluoro[1,1′-biphenyl]-3-yl)methyl]pyrrolidin-3-yl}ethanesulfonamide]: the “OX2R agonist activity (3 μM, %)” value turned out to be 99%.

Take `CCS(=O)(=O)N[C@H]1[C@@H](F)CN(C(=O)C2CCO2)[C@H]1Cc1cccc(-c2cc(F)cc(F)c2)c1F` (stereo partly drawn) [Example 305, N-{(2S,3R,4S)-4-fluoro-1-(oxetane-2-carbonyl)-2-[(2,3′,5′-trifluoro[1,1′-biphenyl]-3-yl)methyl]pyrrolidin-3-yl}ethanesulfonamide]: the “OX2R agonist activity (3 μM, %)” value was 103%.

Turning to `CCS(=O)(=O)N[C@H]1[C@@H](F)CN(C(=O)C23CC(C2)C3)[C@H]1Cc1cccc(-c2cc(F)ccc2F)c1F` [Example 306, N-{(2S,3R,4S)-1-(bicyclo[1.1.1]pentane-1-carbonyl)-4-fluoro-2-[(2,2′,5′-trifluoro[1,1′-biphenyl]-3-yl)methyl]pyrrolidin-3-yl}ethanesulfonamide], the “OX2R agonist activity (3 μM, %)” value stood at 89%.

As to `CCS(=O)(=O)N[C@H]1[C@@H](F)CN(C(=O)C2CCO2)[C@H]1Cc1cccc(-c2cccc(F)c2F)c1F` (stereo partly drawn) [Example 307, N-{(2S,3R,4S)-4-fluoro-1-(oxetane-2-carbonyl)-2-[(2,2′,3′-trifluoro[1,1′-biphenyl]-3-yl)methyl]pyrrolidin-3-yl}ethanesulfonamide], the “OX2R agonist activity (3 μM, %)” value was found to be 100%.

`CCS(=O)(=O)N[C@H]1[C@@H](F)CN(C(=O)C23CC(C2)C3)[C@H]1Cc1cccc(-c2ccccc2)c1F` [Example 308, N-{(2S,3R,4S)-1-(bicyclo[1.1.1]pentane-1-carbonyl)-4-fluoro-2-[(2-fluoro[1,1′-biphenyl]-3-yl)methyl]pyrrolidin-3-yl}ethanesulfonamide]: the “OX2R agonist activity (3 μM, %)” value is 94%.

With `CC(C)C(=O)N1C[C@H](F)[C@H](NS(C)(=O)=O)[C@@H]1Cc1cccc(-c2cccc(F)c2F)c1F` [Example 314, N-{(2S,3R,4S)-4-fluoro-1-(2-methylpropanoyl)-2-[(2,2′,3′-trifluoro[1,1′-biphenyl]-3-yl)methyl]pyrrolidin-3-yl}methanesufonamide], the “OX2R agonist activity (3 μM, %)” value stood at 109%.

Take `CC(C)C(=O)N1C[C@H](F)[C@H](NS(C)(=O)=O)[C@@H]1Cc1cccc(-c2cc(F)cc(F)c2)c1F` [Example 316, N-{(2S,3R,4S)-4-fluoro-1-(2-methylpropanoyl)-2-[(2,3′,5′-trifluoro[1,1′-biphenyl]-3-yl)methyl]pyrrolidin-3-yl}methanesulfonamide]: the “OX2R agonist activity (3 μM, %)” value was 101%.

As for `CS(=O)(=O)N[C@H]1[C@@H](F)CN(C(=O)C2CCO2)[C@H]1Cc1cccc(-c2cccc(F)c2)c1F` (stereo partly drawn) [Example 323, N-[(2S,3R,4S)-2-[(2,3′-difluoro[1,1′-biphenyl]-3-yl)methyl]-4-fluoro-1-(oxetane-2-carbonyl)pyrrolidin-3-yl]methanesulfonamide], the “OX2R agonist activity (3 μM, %)” value amounted to 92%.

`CS(=O)(=O)N[C@H]1[C@@H](F)CN(C(=O)C2CCO2)[C@H]1Cc1cccc(-c2cc(F)cc(F)c2)c1F` (stereo partly drawn) [Example 324, N-{(2S,3R,4S)-4-fluoro-1-(oxetane-3-2-carbonyl)-2-[(2,3′,5′-trifluoro[1,1′-biphenyl]-3-yl)methyl]pyrrolidin-3-yl}methanesulfonamide]: the “OX2R agonist activity (3 μM, %)” value was 91%.

Regarding `CS(=O)(=O)N[C@H]1[C@@H](F)CN(C(=O)C2CCO2)[C@H]1Cc1cccc(-c2cccc(Cl)c2)c1F` (stereo partly drawn) [Example 328, N-[(2S,3R,4S)-2-[(3′-chloro-2-fluoro[1,1′-biphenyl]-3-yl)methyl]-4-fluoro-1-(oxetane-2-carbonyl)pyrrolidin-3-yl]methanesulfonamide], the “OX2R agonist activity (3 μM, %)” value was 86%.

Take `CCS(=O)(=O)N[C@H]1[C@@H](F)CN(C(=O)N(C)C)[C@H]1Cc1cccc(-c2cc(F)cc(F)c2)c1F` [Example 329, (2S,3R,4S)-3-[(ethanesulfonyl)amino]-4-fluoro-N,N-dimethyl-2-[(2,3′,5′-trifluoro[1,1′-biphenyl]-3-yl)methyl]pyrrolidine-1-carboxamide]: the “OX2R agonist activity (3 μM, %)” value is given as 88%.

With `CCS(=O)(=O)N[C@H]1[C@@H](F)CN(C(=O)N(C)C)[C@H]1Cc1cccc(-c2cccc(F)c2F)c1F` [Example 330, (2S,3R,4S)-3-[(ethanesulfonyl)amino]-4-fluoro-N,N-dimethyl-2-[(2,2′,3′-trifluoro[1,1′-biphenyl]-3-yl)methyl]pyrrolidine-1-carboxmaide], the “OX2R agonist activity (3 μM, %)” value amounted to 98%.

Regarding `CCS(=O)(=O)N[C@H]1[C@@H](F)CN(C(=O)N(C)C)[C@H]1Cc1cccc(-c2cccc(Cl)c2)c1F` [Example 332, (2S,3R,4S)-2-[(3′-chloro-2-fluoro[1,1′-biphenyl]-3-yl)methyl]-3-[(ethanesulfonyl)amino]-4-fluoro-N,N-dimethylpyrrolidine-1-carboxamide], the “OX2R agonist activity (3 μM, %)” value came out at 95%.

Regarding `CCS(=O)(=O)N[C@H]1[C@@H](F)CN(C(=O)N(C)C)[C@H]1Cc1cccc(-c2cccc(C)c2)c1F` [Example 333, (2S,3R,4S)-3-[(ethanesulfonyl)amino]-4-fluoro-2-[(2-fluoro-3′-methyl[1,1′-biphenyl]-3-yl)methyl]-N,N-dimethylpyrrolidine-1-carboxamide], the “OX2R agonist activity (3 μM, %)” value was 78%.

For the molecule `CN(C)C(=O)N1C[C@H](F)[C@H](NS(=O)(=O)N(C)C)[C@@H]1Cc1cccc(-c2cccc(F)c2)c1F` [Example 344, (2S,3R,4S)-2-[(2,3′-difluoro[1,1′-biphenyl]-3-yl)methyl]-3-[(dimethylsulfamoyl)amino]-4-fluoro-N,N-dimethylpyrrolidine-1-carboxamide], the “OX2R agonist activity (3 μM, %)” value is listed as 102%.
